Common to all, as to assay: inhibition of tumour cell growth, NCI panel, 48 h
The test system of assay [1] is U251 CNS.
Assay [2] relates to SF-295 CNS.
Assay [3] concerns SK-MEL-5 melanoma.
Assay [4] deals with HCT-15 colon.
Assay [5] relates to SK-MEL-28 melanoma.
In assay [6] the test system is MOLT-4 leukemia.
The test system of assay [7] is OVCAR-5 ovarian.
For assay [8], the system named is HL-60(TB) leukemia.
Assay [9] has as its system OVCAR-3 ovarian.
Assay [10] concerns LOX IMVI melanoma.

Molecules are shown by their SMILES.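 Results reflect a 48-hour exposure of cells in 96-well plates to compound at five concentrations. The concentration for 50% growth inhibition is given as GI50. At the TGI there is no net growth.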 A value given as a limit tells only on which side of the number the result lay.

For `C=C(C=O)[C@@H]1CC=C(C=O)CC1`, the GI50 was 2.4 µM in [1]; 12 µM in [2]; 3.9 µM in [3]; 2.4 µM in [4]; 2.43 µM in assay [5]; 3.69 µM in assay [6]. The GI50 is 26.5 µM in [7] and 2.48 µM in assay [8]. Also, the TGI in [1] is 6.71 µM; in assay [2] it was 97.3 µM; in assay [3] it was > 46.5 µM; in assay [4], 10.1 µM; in assay [5], 5.87 µM; in [6] it was > 100 µM. The results for the TGI in [7] and in [8] were 73 µM and > 100 µM, respectively.
For the compound `C/C(=N\O)c1ccc(Nc2cc(-c3ccccc3)nc3c(O)cccc23)cc1`, the GI50 in assay [9] was 5.49 µM; in [1] it was 11.8 µM; in [2], 5.24 µM; in assay [10], 6.71 µM; in assay [4], 4.75 µM; in assay [5] it was 14.5 µM. Further, the GI50 is 23.8 µM in [7] and 0.585 µM in assay [8]. Besides, the TGI in assay [9] was 31.7 µM; in assay [1], 38.6 µM; in assay [2], 18.3 µM; in assay [10], 24 µM; in assay [4] it was 26.4 µM; in [5], 32.3 µM. The TGI in assay [7] worked out at 47.4 µM; in assay [8], 96.6 µM.
Regarding `O=C1OC(/C=C/c2ccccc2)C(=O)C1=O` (stereo unspecified), the TGI in [1], in assay [2], in assay [4], in assay [5], in assay [6] and in assay [7] was > 100 µM throughout. In addition, the TGI in assay [8] is > 100 µM.
For the compound `O=c1c2ccc(Br)cc2nc(-c2ccccc2)n1NC1OC(CO)C(O)C(O)C1O` (stereo unspecified), the TGI in assay [9], in assay [1], in [2], in [3], in [4] and in assay [5] was > 100 µM each time. Besides, the TGI in assay [6], in assay [7] and in [8] was > 100 µM in each case.
For the compound `O=C(NCCOCCO)c1ccc(O)cc1`, the TGI in assay [1], in assay [10], in assay [3], in [4], in assay [5] and in assay [6] was > 100 µM each time. The TGI in assay [8] is > 100 µM.
With `COc1cc(C2C(C(=O)Nc3ccccc3C)=C(C)NC(C)=C2C(=O)Nc2ccccc2C)ccc1O`, the TGI in assay [9], in assay [1], in assay [2], in assay [3], in assay [5] and in [6] was > 100 µM each time. Also, the TGI in [7] and in assay [8] was > 100 µM throughout.
`COc1ccc2c(C(=O)NCCCCCC(=O)O)cc3cc4c(cc3c2c1)OCO4`: the GI50 in assay [9], in assay [1], in assay [2], in assay [10], in assay [3] and in assay [4] was > 100 µM throughout. Further, the GI50 in assay [5], in assay [6] and in assay [7] was > 100 µM in each case. The TGI in assay [9], in assay [1], in [2], in assay [10], in [3] and in [4] was > 100 µM each time. Further, the TGI in assay [5], in [6] and in assay [7] was > 100 µM each time.
For the compound `Cn1c(=O)c2nc3sc4ccccc4c(=N)n3c2n(C)c1=O`, the TGI in assay [2], in [10], in [3], in [5], in assay [6] and in assay [7] was > 100 µM throughout. Also, in [8], the TGI is > 100 µM.
For the compound `O=C1OC(=O)C2C1C1(c3ccccc3)OC2(c2ccccc2)c2c(Br)c(Br)c(Br)c(Br)c21` (stereo unspecified), the TGI in assay [9], in assay [1], in assay [2], in assay [10], in [3] and in assay [4] was > 100 µM in each case. Also, the TGI in assay [6], in [7] and in [8] was > 100 µM in each case.
`Cc1ccc(Sc2cc([N+](=O)[O-])cc(Sc3ccc(C)cc3)c2Sc2ccc(C)cc2)cc1`: the TGI in assay [9], in [1], in [2], in assay [10], in assay [3] and in assay [4] was > 100 µM each time. In addition, the TGI in [6], in assay [7] and in assay [8] was > 100 µM in each case.
On to `O=c1c(-c2nc3ccccc3[nH]2)cc2ccccc2n1Cc1cn(Cc2ccc(F)cc2)nn1`, for which the GI50 was 0.15 µM in assay [9]; 0.161 µM in [1]; 0.253 µM in assay [2]; 0.084 µM in assay [10]; 0.164 µM in assay [3]; 0.399 µM in [4]. In addition, the GI50 in [6] is 0.233 µM; in assay [7], 0.287 µM. For the same compound, the TGI in assay [9] is 0.911 µM; in assay [1] it was 12.4 µM; in assay [2], 11 µM; in assay [10], > 100 µM; in assay [3] it was > 85.7 µM; in assay [4], > 50.9 µM. For the same compound, the TGI is > 100 µM in assay [6] and 7.84 µM in [7].
For the compound `COc1cc(/C=C/C(=O)c2ccc(SC)cc2)cc(OC)c1OC`, the GI50 was 10.9 µM in assay [9]; 3.27 µM in assay [1]; 12 µM in [3]; 3.6 µM in assay [4]; 16.9 µM in [5]; 3.14 µM in assay [6]. The GI50 in assay [7] was 20.6 µM. Moreover, the TGI in assay [9] is 23.8 µM; in [1] it was 12 µM; in [3], 24.5 µM; in assay [4], 14.4 µM; in assay [5], 32.5 µM; in [6], 8.65 µM. Moreover, in assay [7], the TGI is 35.6 µM.

(Values after PubChem BioAssay (NCI).)
